From ChEMBL document CHEMBL1157539, “Thousands of chemical starting points for antimalarial lead identification” (Nature, 2010)

System: Plasmodium falciparum
Test: GSK_TCMDC: Inhibition of Plasmodium falciparum 3D7 in whole erythrocytes, using parasite LDH activity as an index of growth.
Type: functional, organism-based
Conditions: Plasmodium falciparum, 3D7

| SMILES | XC50 |
| --- | --- |
| CCc1cc2c3c(N)nc(N)nc3ccc2n1CC | 10.3 nM |
| CCN(CC)CCN(Cc1ccc(-c2ccc(C(F)(F)F)cc2)cc1)C(=O)Cn1c(CCc2ccccc2F)nc(=O)c2ccccc21 | 934 nM |
| Oc1ccc(Nc2ccnc3cc(Cl)ccc23)cc1 | 744 nM |
| NCc1ccc(CNCc2ccc(-c3ccc(-c4nc5cc(F)ccc5[nH]4)cc3)cc2)cc1 | 402 nM |
| COc1ccc2nccc([C@@H](O)CN3CCC(NCc4ccc5c(c4)NC(=O)CS5)CC3)c2n1 | 747 nM |
| O=C(Nc1cccc(CN2CCCN(Cc3cccnc3)CC2)c1)c1cc2ccccc2s1 | 1470 nM |
| Oc1ccc(C2CNCCc3c2cc(O)c(OCc2ccccc2)c3Cl)cc1 (centres undefined) | 716 nM |
| O=C(Nc1ccc(CC(=O)N2CCc3cc(Cl)c(N4CCN(C/C=C/c5ccccc5)CC4)cc32)cc1)Nc1cccc([N+](=O)[O-])c1 | 761 nM |
| O=C(O)C[C@H](NC(=O)CCCNC(=O)c1cccc(-c2ccc(Cl)c(Cl)c2)c1)C(=O)O | 881 nM |
| Fc1ccc2[nH]ccc(=NN=CC=Cc3ccccc3)c2c1 | 681 nM |
| CN(Cc1cccc(C#N)c1)C1CCN(c2cc(NC(=O)c3ccc(F)cc3)ccn2)CC1 | 1070 nM |
| Oc1cccc2c1CC(NCc1ccccc1)CC2 (centres undefined) | 887 nM |
| COc1cccc(C(O)CNc2ccnc(Nc3ccc(Cl)cc3)n2)c1 (centres undefined) | 606 nM |
| Cc1cc(Nc2cc(Cl)cc(Cl)c2)nc(N)n1 | 1140 nM |
| COc1ccc(CN(C)CC(O)COc2ccc(NC(=O)c3cccc4c(=O)c5cccc(OC)c5[nH]c34)cc2)cc1OC (centres undefined) | 780 nM |
| CC(=O)Nc1cccc(C(=O)Nc2cccc(-c3ccc(-c4nc5cc(F)ccc5[nH]4)cc3)c2)c1 | 764 nM |
| O=C(/C=C/c1ccc(Cl)c(Cl)c1)NCCCCCN1CCC(NC(=O)Nc2ccc(F)cc2F)CC1 | 739 nM |
| COc1ccc(CC(=O)NC(CCN2CCC3(CC2)CN(S(C)(=O)=O)c2ccccc23)c2ccc(Cl)c(Cl)c2)cc1OC (centres undefined) | 998 nM |
| Fc1ccc2ncc(Cl)c(CCN3CCC(NCc4cc5c(cn4)OCCO5)CC3)c2c1 | 884 nM |
| Cc1ccc(Oc2cnn(C)c(=O)c2Nc2cccc(C(=O)NCCc3ccccn3)c2)c(C)c1 | 494 nM |
| CC1CN(c2cccc3c2nc(-c2cncc(C#N)c2)n3CCNCc2ccccc2)CC(C)O1 (centres undefined) | 1220 nM |
| Cc1ccc2c(C3=CCN(CCCCC4(C)C(=O)Nc5c(F)cccc54)CC3)c(C)[nH]c2c1 (centres undefined) | 265 nM |
| CCNc1cc(C(=O)N[C@@H](Cc2cccc(F)c2)[C@H](O)CNC(C)CCCC(C)C)cc(N2CCCCS2(=O)=O)c1 (some centres undefined) | 596 nM |
| Cc1cc(C)cc(Oc2c(C(F)(F)F)oc3c(CN4CC(C)OC(C)C4)c(O)ccc3c2=O)c1 (centres undefined) | 939 nM |
| Nc1nccc2ccc(-c3ccsc3)cc12 | 332 nM |

| SMILES | XC50 |
| --- | --- |
| Cc1ccc(OCCCON2C(=N)N=C(N)NC2(C)C)cc1C | 3.2 nM |
| Oc1ccc(CCCNc2nc(NCc3cccc4ccccc34)nc(N3CCNCC3)n2)cc1 | 808 nM |
| COc1cccc(OC2CCN(C(=O)c3cc(C(C)(C)C)nn3Cc3ccccc3)CC2)c1 | 254 nM |
| COc1cccc(-c2cc(C(=O)NC3CCC(N4CCC(c5ccccc5C)CC4)CC3)[nH]n2)c1 (centres undefined) | 1120 nM |
| O=S(=O)(c1ccc(OC(F)(F)F)cc1)C1CC2CCC(C1)N2S(=O)(=O)c1ccc(Cl)c(C(F)(F)F)c1 (centres undefined) | 560 nM |
| COc1ccccc1CC(C)NCC(O)c1cccc(Cl)c1 (centres undefined) | 811 nM |
| CS(=O)(=O)Nc1ccc(-c2ccc3ccnc(N)c3c2)cc1 | 614 nM |
| Nc1nc(N)c2c(ccc3c2ccn3Cc2ccc3c(c2)OCO3)n1 | 3.2 nM |
| O=C(/C=C/c1ccccc1Cl)NC1CCC(CN2C3CCC2CC(c2c[nH]c4ccccc24)C3)CC1 (centres undefined) | 706 nM |
| c1cc(CN2CCCCC2)cc(-c2ccc(-c3nc4ccccc4[nH]3)cc2)c1 | 889 nM |
| CC1(CCc2ccccc2)N=C(N)N=C(N)C1c1ccc(Cl)c(Cl)c1 (centres undefined) | 316 nM |
| Cc1cc(NC(=O)c2cccs2)ccc1OC1CCN(Cc2ccc(F)cc2)CC1 | 481 nM |
| Cc1cccc2nc(-c3ccc(-c4ccc(CNCC(C)C)cc4)cc3)[nH]c12 | 405 nM |
| O=S(=O)(c1cc(Cl)ccc1Cl)N1CCCCC(c2ccc(C(F)(F)F)cc2)=N1 | 998 nM |
| CN(C)CCN(C)Cc1cccc(-c2ccc3c(Nc4cc(O)c(Cl)cc4F)ccnc3c2)c1 | 237 nM |
| CCCc1cc(C(=O)N[C@@H](Cc2ccccc2)[C@H](O)CNC(C)(C)c2cccc(OC)c2)c(F)c(N2CCCC2=O)c1 | 95.7 nM |
| O=C(Nc1cc(C(F)(F)F)cc(C(F)(F)F)c1)Nc1cc(C(F)(F)F)cc(C(F)(F)F)c1 | 727 nM |
| CCCCCCCCN1CCN(CCCCCCNc2c3ccccc3nc3ccccc23)CC1 | 162 nM |
| CCCCn1c(-c2ccco2)nc2c(c(=O)c3ccccc3n2C)c1=O | 1240 nM |
| Cc1ccc2[nH]c(NC#N)nc2c1 | 1150 nM |
| Oc1ccc2[nH]c(-c3cccs3)nc2c1CN1CCC(N2CCCC2)CC1 | 642 nM |
| Cc1c(CNCCCNc2cc(=O)c3ccccc3[nH]2)sc(C(F)F)c1Br | 867 nM |
| COc1ccc2nc3cc(Cl)ccc3c(N)c2c1 | 165 nM |
| CCOC(=O)CNC(=O)c1cc(=O)c2ccccc2o1 | 210 nM |
| CN1CCCC(CN2CCN(Cc3cccc(-c4ccc(-c5nc6ccccc6[nH]5)s4)c3)CC2)C1 (centres undefined) | 149 nM |

| SMILES | XC50 |
| --- | --- |
| Cc1ccc(CNC(=O)[C@H](Cc2ccccc2)Nc2cc(C)nc(Nc3ccccc3)n2)cc1 | 853 nM |
| Cc1c(OC(C)C)nc2ccccc2c1C(=O)N[C@H](c1cccc(F)c1)C1CC1 | 1090 nM |
| O=C(/C=C/c1ccc(Cl)c(Cl)c1)NCCCCCN1CCC(NC(=S)Nc2ccc(Cl)cc2Cl)CC1 | 738 nM |
| O=C(CCCCCNC(=O)c1ccc(O)c(-c2ccc(Cl)c(Cl)c2)c1)NCCN1CCCC1 | 980 nM |
| CC(=O)Nc1ccc(CN2CCC(NC(=O)c3ccc(-c4cccc(C(F)(F)F)c4)s3)CC2)cc1 | 890 nM |
| CN(c1ccc2c(c1)nc(NC(=O)C1(c3cc(F)ccc3F)CC1)n2C)c1ccnc(Nc2cccc(CS(C)(=O)=O)c2)n1 | 1100 nM |
| Cc1cccc2nc(-c3ccc(-c4ccc(CNCCCN5CCCC5=O)cc4)s3)[nH]c12 | 749 nM |
| O=C(c1ccc([N+](=O)[O-])o1)N1CCC(c2cn(Cc3cccc(F)c3)c3ccccc23)CC1 | 637 nM |
| COc1ccc2nccc(N3CCC(CCNCc4ccc5c(n4)NC(=O)CO5)CC3)c2n1 | 998 nM |
| CCCOc1ccccc1C(=O)Nc1nonc1-c1ccc(OCC)c(OCC)c1 | 711 nM |
| CCc1ccc(-c2cnc(N)c3cc(-c4ccnc(N)n4)ccc23)cc1 | 1350 nM |
| Cc1ccc(Nc2nccc(NCC(O)c3ccc(C(F)(F)F)cc3)n2)cc1 (centres undefined) | 491 nM |
| CC(Nc1nc(Nc2ccc(F)cc2)nc(SCC(N)=O)n1)c1ccccc1 (centres undefined) | 496 nM |
| O=C(Nc1ccccc1)N(Cc1ccccc1-c1cccc(CNC2CCCC2)c1)C1CCN(Cc2ccccc2)CC1 | 168 nM |
| O=C(NC1CCN(c2ccnc3ccccc23)C1)c1cccc(C(F)(F)F)c1 (centres undefined) | 897 nM |
| Cc1ccc(NC(=O)Nc2ccc(Cl)c(C(F)(F)F)c2)cc1-c1ccc(C(=O)Nc2ccncc2)cc1 | 264 nM |
| COc1ccc2c(ccc3c2ncc2c(=O)n(-c4ccccc4)[nH]c23)c1 | 520 nM |
| Cc1nc(C)c(-c2ccc(Oc3ccc(Cl)c(Cl)c3)cc2)c(O)c1Br | 304 nM |
| c1ccc(CN2CCC(Nc3ccc(-c4c[nH]nc4-c4ccccn4)nc3)CC2)cc1 | 799 nM |
| Cc1ccccc1NC(=S)NC1CCN(CCCCCNC(=O)/C=C/c2ccc(Cl)c(Cl)c2)CC1 | 795 nM |
| C[C@H](Cc1ccc(OCCCCCCOc2ccc(C[C@@H](C)NC(=O)[C@H](O)c3cccc(Cl)c3)cc2)cc1)NC[C@H](O)c1cccc(Cl)c1 | 381 nM |
| CN1C(C)(C)CC(NC(=O)c2ccc(-c3cc4cc(Cl)c(Cl)cc4[nH]3)o2)CC1(C)C | 1120 nM |
| Cc1cccc(-c2nc3[nH]c(=O)cc(NC(=O)C(C)C)n3n2)c1 | 421 nM |
| Cc1cccc(-c2ccc(NC(=O)Nc3ccc4nccc(N5CCN(C)CC5)c4c3)cc2C)n1 | 212 nM |
| CCC1CN(CCCn2c3ccccc3c3ccccc32)C(CC)CN1 (centres undefined) | 1080 nM |

| SMILES | XC50 |
| --- | --- |
| N/C(=N\c1cccc(Cc2ccccc2)n1)NCc1ccccc1 | 863 nM |
| Cc1[nH]c2ccc(-c3ccccc3)cc2c(=O)c1Br | 162 nM |
| CN(C)CCC1CCN(CCS(=O)(=O)c2cccc(Nc3ccc(-c4cccc(F)c4)cn3)c2)CC1 | 1070 nM |
| N#Cc1ccc(C2CCN(CC[C@H](N)Cc3ccc(Cl)s3)CC2)cc1 | 1260 nM |
| C(=N\Nc1nccc2sc(-c3cccnc3)cc12)/c1cccnc1 | 423 nM |
| Cc1noc(C)c1-c1cccc(CNCc2cccc(-c3ccc(-c4nc5cc(C(F)(F)F)ccc5[nH]4)s3)c2)c1 | 166 nM |
| Fc1ccc(N(c2nc(-c3cc(F)cc(C(F)(F)F)c3)cs2)C2CCNCC2)cc1 | 956 nM |
| CC(=O)C1(c2ccccc2)CCN(CCC2(c3ccc(Cl)c(Cl)c3)CN(C(=O)Nc3cc(F)cc(F)c3)CCO2)CC1 (centres undefined) | 1480 nM |
| Cc1ncccc1C(=O)Nc1ccc(-c2cccc(-c3nc4cccc(C)c4[nH]3)c2)cc1 | 733 nM |
| O=C(CSc1ccccn1)Nc1c(F)cccc1F | 1210 nM |
| COCCOc1ccc(Nc2nccc(-c3c(-c4cccc(NC(=O)c5c(F)cccc5F)c4)nn4ccccc34)n2)cc1F | 950 nM |
| CC(Cc1ccc(OCCN2CCN(c3cccc(C(F)(F)F)c3)CC2)cc1)NCC(O)c1cccc(C(F)(F)F)c1 (centres undefined) | 181 nM |
| O=c1ccc(-c2nc3cc(Cl)c(Cl)cc3n2Cc2ccc(Cl)cc2Cl)c[nH]1 | 1110 nM |
| CCc1nn2c(Nc3ccncc3)cc(C)nc2c1-c1ccccc1 | 203 nM |
| Cc1ccc(O)cc1Nc1ccnc2ccc(-c3cccc(CN(C)C)c3)cc12 | 515 nM |
| Cc1nc(Nc2cc(Cl)ccc2O)nc(Nc2cc(Cl)ccc2O)c1[N+](=O)[O-] | 29.4 nM |
| CCc1sc(N2CCC(C)CC2)nc1C(=O)Nc1ccc(F)cc1C(F)(F)F | 1090 nM |
| O=C(Nc1ccccc1F)NC1CCN(c2ccnc(Nc3ccc(F)cc3)n2)CC1 | 754 nM |
| Cn1c(Nc2cc(C(C)(C)C)on2)nc2cc(Nc3ccnc(Nc4ccc(CS(C)(=O)=O)cc4)n3)ccc21 | 977 nM |
| O=C(Cn1cnc2c(nnn2Cc2ccccc2F)c1=O)Nc1ccc2c(c1)OCCO2 | 949 nM |
| COc1cc(C(=O)Nc2cccc(-c3nc4ccccc4[nH]3)c2)ccc1OC(C)=O | 762 nM |
| COc1cccc(C(=O)Nc2nonc2-c2ccc(OC)c(OC)c2)c1 | 801 nM |
| COc1ccc(C2CC(c3ccccc3O)=NN2C(=O)c2ccco2)cc1OC (centres undefined) | 947 nM |
| c1ccc(-c2cc3cccc(-c4nc5cnccc5[nH]4)c3o2)cc1 | 115 nM |
